Data taken from patent publication US10137181B2, “Isolated donor MHC-derived peptide and uses thereof” (INSERM (INSTITUT NATIONAL DE LA SANTÉ ET DE LA RECHERCHE …, priority 2014, dated 2018).

What was measured:
CD8^+CD40Ig Tregs [1] = assay: MLR coculture assay: CD8+CD40Ig Treg activation (CD25 expression) by donor MHC-derived peptides in the presence of syngeneic pDCs; format: cell-based, rat; settings: 6 days culture, CpG-matured syngeneic pDCs; for activation of CD8+CD40Ig Tregs (CD25 upregulation), in words: individual peptide, derivatives compared with Bu31
Source text: FIG. 1: Analysis of CD8+CD45RClow Tregs activation in response to donor-derived peptide stimulation. (A) CD8+ Tregs were cocultured for 6 days with syngeneic CpG-matured pDCs in the presence of peptides. For each experiment, the percentage of CD25 positive Tregs after 6 days of coculture with pDCs only, was given the value 1. Mean value 1 is equal to 32.85±1.98%. Results are expressed as the ratio±SEM between the percentage of CD25 positive cells after peptide stimulation and percentage of CD25 positive cells in the control condition without peptide. *p<0.05, **p<0.01 and ***p<0.001 versus control condition (value 1.0). n=4 to 18 for each peptide. (B) Analysis of Treg activation in response to Bu31 shorter peptide derivatives. On the left, 15 Bu31-derivatives are detailed and classified by aa sequence length, from 9 aa to 15 aa. The box highlights mismatched aa between the donor and recipient. On the right, Treg activation in response to Bu31-derivatives was analyzed by CD25 expression. CD8+ Tregs were cocultured for 6 days with syngeneic CpG-matured pDCs in the presence of each peptide. Bars represent the ratio between the percentage of CD25 positive cells after peptide stimulation and percentage of CD25 positive cells in the control condition without peptide. *p<0.05, **p<0.01 versus Bu31 condition. n=3 to 14 for each peptide.
(§1) Mixed lymphocyte reaction: For MLR coculture assays, pDCs from LEW.1A naive rats (1.25×10^4 cells), syngeneic CD8^+CD40Ig Tregs (5×10^4 cells) and 120 μg/ml of allogeneic peptides were plated in triplicate in 200 μl of complete RPMI-1640 medium in round-bottom 96 wells plates for 6 days at 37° C., 5% CO2. pDCs were matured with 0.5 μM of CpG ODN 1826.
(§2) Proliferation of CFSE-labeled naive CD4^+CD25^− T cells and phenotype of CD8^+CD45RC^low Tregs were analyzed by flow cytometry on a FACSCanto II cytometer (BD Biosciences) after gating on TCR^+CD4^+ cells or TCR^+CD8^+ cells among live cells (DAPI negative).
(§3) Extracellular and intracellular staining: For extracellular staining, cells were stained with the following mAbs: anti-TCRαβ (R73, Alexa Fluor 647-conjugated), anti-CD8α (OX8, PE-Cy7-conjugated, Ebiosciences), anti-CD4 (W3.25, PE-Cy7-conjugated), anti-CD45RC (OX22, FITC-conjugated), anti-CD28 (JJ319, biotin-labeled), anti-CD71 (OX26, biotin-labeled), anti-CD25 (OX39, biotin-labeled) and anti-MHC-II (OX6, biotin-labeled).
In the rat MHC-mismatched heart allograft model, donors (RT1^u) and recipients (RT1^a) are mismatched for all MHC molecules. We therefore aligned donor and recipient MHC I and II amino acids (aa) sequences and designed 82 overlapping 16-mer peptides matching the polymorphic domains of donor MHC I and II molecules (4-6). Peptides were first grouped into pools of 6 to 8 peptides (30 μg/ml of each peptide) and tested in an in vitro assay where immature or mature syngeneic recipient plasmacytoic dendritic cells (pDCs) and sorted-CD8^+CD40Ig Tregs from CD40Ig-treated long-term allograft bearing recipients were cocultured for 3 or 6 days. With immature pDCs, we observed no significant activation of CD8^+CD40Ig Tregs at day 3 or day 6 with any of the allogeneic pools of peptides. After stimulation with mature pDCs and pools of allogeneic peptides we observed at day 3 a slight upregulation of CD25 expression of a small population of CD8^+CD40Ig Tregs, and at day 6, a significant up-regulation of CD25 expression following allogeneic stimulation.

[2] = test system: heart allograft, LEW.1W donors into LEW.1A recipients; assay: Cardiac allograft survival after in vivo peptide infusion
Method: Recipients were either untreated (n=9) or treated with continuous infusion of peptide by i.p mini osmotic pumps (ALZET), delivering from day-7 and for 28 days, either 20.83 μg/hour alone (Bu31 0.5 mg/day: n=6) or 40.66 μg/hour in the LEW.1W/LEW.1A (Du51 1 mg/day: n=5) or combined with a depleting anti-CD8 mAb (OX8) (n=2) or BN/LEW.1A (Du51 1 mg/day (BN/1A): n=4) strains combination.
Animals and cardiac transplantation models: Allotransplantations of heart were performed between whole MHC incompatible LEW.1W (RT1.A^u as donors) and LEW.1A (RT1.A^a as recipients) male rats as previously described (1).
Peptides treatment in vivo: 16-mer peptides were dissolved in 0.4% DMSO/PBS before injection. […] In the second protocol, mini osmotic pumps (ALZET, Cupertino, Calif., USA) were implanted intraperitoneally (i.p) in recipients and delivered continuously either 20.83 or 41.66 μg/hour of 16-mer peptides for 14 days. A first pump was implanted on day −7 before transplantation and was replaced by a second one at day +7, allowing delivery of 14 or 28 mg of peptide per animal for 28 consecutive days. A depleting anti-CD8α mAb (OX8, IgG1, 3 mg/kg) was injected i.p. twice a week from day −7 until rejection. Allografts were monitored daily by palpation and allograft rejection was defined as complete cessation of palpable heart beat.

donor splenocytes = assay: Donor specific alloantibody detection; format: in vivo, rat; settings: long-term surviving treated recipients vs untreated rats, sera >120 days after transplantation
Method: FIG. 6: Anti-donor immune responses. Allo antibody production was evaluated in naive (n=3), grafted untreated (n=3) and long-term […] (n=4) animals. Sera were collected <30 days after rejection or >120 days after transplantation. Sera were incubated with donor splenocytes and analyzed by flow cytometry for IgG, IgG1 or IgG2b Abs production. Graph represents MFI±SEM.
Donor specific alloantibody detection: Alloantibodies were analyzed by cytofluorimetry as described elsewhere (14). Briefly, after digestion by collagenase D and red blood cell lysis, allogeneic spleen cells were incubated with diluted (⅛) heat-inactivated serum, and then with FITC-conjugated goat anti-rat IgG antibodies (H+L chain specific) (Jackson Laboratories), a mouse anti-rat IgG1 MAb (MCA 194, Serotec) or IgG2b (MCA 195, Serotec). […] Cells were analyzed using a FACS Canto II cytofluorimeter (BD Biosciences, Mountain View, Calif.) and the results were expressed as mean channel fluorescence for each serum.

CD8^+CD40Ig Tregs [3] = assay: Flow cytometry phenotype of CD8+ Tregs after ex vivo peptide stimulation; format: cell-based, rat; settings: 6 days of peptide stimulation
Method: (§4) FIG. 2: CD8+ Tregs phenotype following ex vivo allopeptide stimulation. (A) Tregs and syngeneic CpG-matured pDCs were cultured for 6 days, alone, with a control peptide or with peptide Bu31. Expression of indicated markers was analyzed on CD8+ Tregs in the culture supernatant by ELISA (A) or by flow cytometry (B) after in vitro stimulation. Graphs represent the mean±SEM. *p<0.05, **p<0.01, n=4 to 7.
as §1, §3
For intracellular staining, cells were then stained for Foxp3 (biotin-labeled, Ebiosciences) using BD cytofix/cytoperm kit (BD Biosciences) according to the manufacturer's instructions.
All biotinylated mAbs were visualized using Streptavidin-PerCP.Cy5.5 (BD Biosciences). A FACSCanto II cytofluorimeter (BD Biosciences) was used to measure fluorescence, and data were analyzed using FlowJo software (Tree Star, Inc. USA, version 7.6.5). Cells were first gated by their morphology and dead cells excluded by selecting DAPI negative viable cells.

CD4^+CD25^− T cells [4] = assay: In vitro suppressive potential of CD8+CD45RClow Tregs from peptide-treated recipients; format: cell-based, rat; settings: 6 days culture, donor LEW.1W pDCs, different effector:suppressor ratios
Method: FIG. 7. In vitro suppressive potential of CD8^+CD45RC^low Tregs from Bu31-treated recipients. The proliferation of naive CFSE-labeled LEW.1A CD4^+CD25^− T cells stimulated with donor LEW.1W pDCs was analyzed after 6 days of culture, in the presence of LEW.1A CD8^+CD45RC^low Tregs from naive or Bu31-treated recipients at different effector:suppressor ratio. The CD4^+CD25^− T cell proliferation alone was ˜80% and was given the value 100 in each experiment. Graphs represent the mean±SEM of relative CD4^+CD25^− T cell proliferation. *p<0.05.
For MLR suppressive assays, sorted CFSE-labeled CD4^+CD25^− T cells from LEW.1A origin (5×10^4 cells) and allogeneic pDCs isolated from donor LEW.1W animals (1.25×10^4 cells) were plated in triplicate for 6 days in a final volume of 200 μl of completed RPMI-1640 medium in round-bottom 96 wells plates with FACS-sorted freshly purified naive CD8^+CD45RC^low Treg cells or peptide-expanded CD8^+CD40Ig Treg cells (5×10^4 cells).
as §2

CD8^+CD40Ig Tregs [5] = assay: Cytokine ELISA in Treg/pDC coculture supernatants after peptide stimulation; format: cell-based, rat; settings: 6 days peptide stimulation with pDCs
Method: as §4, §1
Cytokine assays: IFNγ, IL-10 were measured in coculture supernatants using ELISA from BD Biosciences OptEIA, IL-12 and TGFβ using ELISA from Invitrogen and R&D System respectively.

CD4^+CD25^− T cells [6] = assay: MLR suppressive assay with peptide-stimulated CD8+CD40Ig Tregs; format: cell-based, rat; settings: day 6, donor LEW.1W pDCs, 1:1 effector:suppressor, vs Tregs stimulated by a non-activating peptide
Method: FIG. 3: Bu31-activated Tregs maintained efficient suppressive activity. Fresh CD8+CD40Ig Tregs and syngeneic CpG-matured pDCs were cocultured for 6 days with either Bu31 or a control peptide. At day 6, Tregs were isolated by cell sorting (TCR+) and their regulatory function was analyzed by measuring their capacity to suppress MLR assay. The relative proportion of naive CFSE-labeled dividing LEW.1A CD4+CD25− T cells after stimulation with donor LEW.1W pDCs was analyzed at day 6 of culture, in the absence or presence of 6 days peptide-stimulated CD8+ Tregs at a 1:1 ratio effector:suppressor. Graphs represent the mean±SEM. *p<0.05 (left). Plots are representative of four independent experiments (right). […]
as §2
Here, we investigated whether Bu31-stimulated CD8^+CD40Ig Tregs could efficiently suppress effector T cell proliferation after 6 days coculture and thus maintained their suppressor activity, compared to CD8^+CD40Ig Tregs stimulated with a non-activating control peptide. […] To evaluate this, we measured the relative proportion of dividing CD4^+CD25^− T cells at day 6 of coculture (FIG. 3).

cardiac grafts = assay: Morphometric analysis of cardiac grafts (chronic rejection); format: in vivo, rat; settings: long-term surviving peptide-treated recipients
Method: Morphometric analysis of cardiac grafts: The upper third of the graft was fixed in paraformaldehyde and embedded in paraffin. Five μm coronal sections were stained with hematoxylin-eosine-safron. Tissues were analyzed by a pathologist blinded to the groups and chronic rejection was evaluated as previously described (16).

LRYDSDVGEYRAVTE (Synthetic 15-mer peptide 31-15)
activation of CD8+CD40Ig Tregs (CD25 upregulation), in words (CD8^+CD40Ig Tregs [1]): much stronger and significant CD25 upregulation

SDVGEYRAVTELGR (Synthetic 14-mer peptide 31-14)
activation of CD8+CD40Ig Tregs (CD25 upregulation), in words (CD8^+CD40Ig Tregs [1]): much stronger and significant CD25 upregulation

YLRYDSDVGEYRAV (Synthetic 14-mer peptide 31-13)
activation of CD8+CD40Ig Tregs (CD25 upregulation), in words (CD8^+CD40Ig Tregs [1]): much stronger and significant CD25 upregulation

YLRYDSDVGEYRAVTE (Synthetic Subdominant peptide Bu31) [16-mer from the β1 chain of donor MHC class II RT1.B^u]
prolongation of allograft survival ([2]; 0.5 mg/day i.p. mini-osmotic pumps for 28 days from day -7, monotherapy): not sufficient to induce prolongation of allograft survival
indefinite allograft survival, share of recipients ([2]; 1 mg/day i.p. mini-osmotic pumps for 28 days from day -7, LEW.1W/LEW.1A): 80%
rejection of Brown Norway (BN) third party grafts, time after transplantation ([2]; peptide infusion 1 mg/day, BN/LEW.1A combination): 7 days
IgG1 alloantibodies production (donor splenocytes): total inhibition
IgG2b alloantibodies production (donor splenocytes): total inhibition
total IgG alloantibodies production (donor splenocytes): total inhibition
CD28 expression on CD8+ Tregs (CD8^+CD40Ig Tregs [3]): upregulation
CD71 expression on CD8+ Tregs (CD8^+CD40Ig Tregs [3]): upregulation
Foxp3 expression in CD8+ Tregs (CD8^+CD40Ig Tregs [3]): no modification
MHC class II expression on CD8+ Tregs (CD8^+CD40Ig Tregs [3]): upregulation
ex vivo suppressive activity of CD8+CD45RClow Tregs from treated recipients on effector CD4+ T cell proliferation (CD4^+CD25^− T cells [4]): superior suppressive activity
IFNγ expression in culture supernatant (CD8^+CD40Ig Tregs [5]): significant increased expression
IL-10 expression in culture supernatant (CD8^+CD40Ig Tregs [5]): no modification
IL-12 expression in culture supernatant (CD8^+CD40Ig Tregs [5]): no modification
TGFβ expression in culture supernatant (CD8^+CD40Ig Tregs [5]): no modification
upregulation of CD25 expression at the cell surface of CD8+CD40Ig Tregs, ratio of % CD25 positive cells vs. no peptide (CD8^+CD40Ig Tregs [1]; individual 16-mer peptide, mean±SEM): 1.67±0.09 fold
suppressive activity of peptide-stimulated Tregs: relative proportion of dividing CD4+CD25− effector T cells (CD4^+CD25^− T cells [6]): maintained an efficient suppressive activity
signs of chronic rejection, anatomopathologic analysis of the graft (cardiac grafts): no signs of chronic rejection

YLRYDSDVGEYR (Synthetic 12-mer peptide 31-10)
activation of CD8+CD40Ig Tregs (CD25 upregulation), in words (CD8^+CD40Ig Tregs [1]): much stronger and significant CD25 upregulation
